Reference: patent US20230148450A9, “BICYCLIC HETEROARYL COMPOUNDS AND USES THEREOF” (Revolution Medicines, Inc., priority 2019, published 2023)

Molecular target: T1, SOS1-mediated exchange of KRAS-4B:GDP to KRAS-4B:GTP (Homo sapiens, UniProt Q07889)
T1 construct: SOS1 (Cytoskeleton Inc., Cat. CS-GE02); purchased Cytoskeleton Inc. CS-GE02 (SOS1); CSRS03 (KRAS4-B)
T1 sequence (Q07889 564-1049 limits assumed): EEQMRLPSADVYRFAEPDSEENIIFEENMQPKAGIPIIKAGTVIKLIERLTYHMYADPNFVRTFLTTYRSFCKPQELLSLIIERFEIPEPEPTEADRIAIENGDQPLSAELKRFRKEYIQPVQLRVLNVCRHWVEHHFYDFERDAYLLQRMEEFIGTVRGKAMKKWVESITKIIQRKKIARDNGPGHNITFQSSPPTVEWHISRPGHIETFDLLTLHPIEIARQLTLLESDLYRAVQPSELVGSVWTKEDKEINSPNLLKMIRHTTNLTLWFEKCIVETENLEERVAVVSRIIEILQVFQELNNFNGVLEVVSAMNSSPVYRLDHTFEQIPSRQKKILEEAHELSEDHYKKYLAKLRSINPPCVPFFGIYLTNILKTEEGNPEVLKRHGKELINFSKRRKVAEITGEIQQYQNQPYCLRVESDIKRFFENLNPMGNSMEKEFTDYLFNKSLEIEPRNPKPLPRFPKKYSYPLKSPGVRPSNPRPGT
Experiment: Bodipy-FL-GTP Association Assay
Type: biochemical
Settings: SOS1 GEF activity on KRAS-4B, 22° C.
Procedure: A low IC50 value for a given compound is indicative of high potency of said compound in inhibiting the guanine nucleotide exchange factor (GEF) activity of SOS1 on KRAS-4B in this assay setting. Reagents: BODIPY FL GTP (ThermoFisher Scientific, Cat. G12411); KRAS4-B (Cytoskeleton Inc., Cat. CSRS03); SOS1 (Cytoskeleton Inc., Cat. CS-GE02); 2× Assay Buffer: 40 mM Tris-HCl, pH 7.5; 100 mM NaCl; 20 mM MgCl2; 0.1 mg/mL BSA; 0.02% NP-40 Assay Procedure: Test compounds were dissolved in DMSO to create 20 mM master stocks. The stocks were diluted in a 3× dilution series in 100% DMSO to achieve 100× compound stocks. A 1 μl spot of each test compound stock was delivered to two adjacent wells of a 96-well assay plate prior to running the assay. Reaction Mix preparation: The following were mixed in order at room temperature to obtain the “Reaction Mix” (5.75 mL 2× Exchange Buffer; 3.22 mL MilliQ ddH2O; 3 μL 5 mM BODIPY FL GTP; 230 μL 50 μM KRAS-4B; 9.203 mL Total volume. Reaction initiation: 80 μL of Reaction Mix was pipetted into each well of a half-area black 96-well plate (Corning, Cat. 3686) containing either a 1 μL spot of DMSO or a 1 μL spot test compound at the concentrations listed above. 20 μL of 1 μM SOS1 was then added to each well to initiate the reaction. For the no GEF control wells this was replaced with 1× exchange buffer. Kinetic measurement: The reaction was monitored in a SpectraMax M2 Microplate Reader (Molecular Devices) under the following protocol: 5 second rapid circular mixing before first read; 61 readings, 30 seconds apart; Assay temperature: 22° C.; Excitation wavelength: 485 nm; Emission wavelength: 513 nm. Data Analysis: The V max values for the SOS1-mediated BODIPY FL GTP exchange curves in the presence of test compounds were normalized to the most dilute test sample columns or DMSO only control wells to give the % Activity for each concentration of test compound. Plots of % Activity vs. the Log10 of the compound concentration were fit by non-linear regression to a 4-parameter logistic model.

IC50 [µM]	SMILES
> 5	C[C@@H](Nc1nccn2cc(C(=O)NC[C@H]3CCOC3)nc12)c1cccc(C(F)(F)F)c1 [Example 17]
< 1	C[C@@H](NC1=NC=NC2SC(C3(O)CCC(C(=O)N(C)C)CC3)=CC12)c1cc(N)cc(C(F)(F)F)c1 (stereo partly drawn) [Example 23]
> 5	Cc1nc(N[C@H](C)c2cccc(C(F)(F)F)c2)c2cc(C3=CCNCC3)cn2n1 [Example 19]
1 to 5	COc1nc(N[C@H](C)c2cccc(C(F)(F)F)c2)c2cc(C3=CCNCC3)cn2n1 [Example 21]
> 5	C[C@@H](Nc1nccn2cc(C(=O)N3CCN(C)CC3)nc12)c1cccc(C(F)(F)F)c1 [Example 18]
> 5	COCC(=O)N1CC=C(c2cnc3c(N[C@H](C)c4cccc(C(F)(F)F)c4)nccn23)CC1 [Example 22]

Further lines, the compound ahead of its results:

SMILES	IC50 [µM]
Cc1nc(N[C@H](C)c2cc(N)cc(C(F)(F)F)c2)c2cc(C3=CCNCC3)sc2n1 [Example 26]	1 to 5
C[C@@H](Nc1ncnn2cc(C(=O)N3CCOCC3)cc12)c1cc(N)cc(C(F)(F)F)c1 [Example 16]	> 5
C[C@@H](Nc1ncnc2sc(C3=CCNCC3)cc12)c1cc(N)cc(C(F)(F)F)c1 [Example 3, N-[(1R)-1-[3-amino-5-(trifluoromethyl)phenyl]ethyl]-6-(1,2,3,6-tetrahydropyridin-4-yl)thieno[2,3-d]pyrimidin-4-amine]	1 to 5
Cc1nc(N[C@H](C)c2cccc(C(F)(F)F)c2)c2sc(C3=CCNCC3)cc2n1 [Example 1, 2-methyl-6-(1,2,3,6-tetrahydropyridin-4-yl)-N-[(1R)-1-[3-(trifluoromethyl)phenyl]ethyl]thieno [3,2-d] pyrimidin-4-amine]	1 to 5
CC(=O)N1CC=C(c2cc3c(N[C@H](C)c4cccc(C(F)(F)F)c4)ncnn3c2)CC1 [Example 15]	> 5
Cc1cn2nc(C(=O)N3CCN(C)CC3)cc2c(N[C@H](C)c2cccc(C(F)(F)F)c2)n1 [Example 25]	> 5
C[C@@H](Nc1ncnn2cc(C3CCNCC3)cc12)c1cc(N)cc(C(F)(F)F)c1 [Example 11, N-[(1R)-1-[3-amino-5-(trifluoromethyl)phenyl]ethyl]-6-(piperidin-4-yl)pyrrolo[2,1-f][1,2,4]triazin-4-amine]	< 1
C[C@@H](Nc1ncnn2cc(C3=CCNCC3)cc12)c1cc(N)cc(C(F)(F)F)c1 [Example 12, N-[(1R)-1-[3-amino-5-(trifluoromethyl)phenyl]ethyl]-6-(1,2,3,6-tetrahydropyridin-4-yl)pyrrolo[2,1-f][1,2,4]triazin-4-amine]	< 1
Cc1nc(N[C@H](C)c2cccc(C(F)(F)F)c2)c2sc([C@]3(O)CC[C@H](O)CC3)cc2n1 [Example 6, cis-1-(2-methyl-4-{[(1R)-1-[3-(trifluoromethyl)phenyl]ethyl]amino}thieno[3,2-d]pyrimidin-6-yl)cyclohexane-1,4-diol]	1 to 5
